# Measurements published in ChEMBL document CHEMBL5260810, “Inhibition of bromodomain-containing protein 9 for the prevention of epigenetically-defined drug resistance” (Bioorg Med Chem Lett, 2017).
# What was measured:
# [1] = Cytotoxicity against human HCSC-1 cells measured after 8 days; assay type: functional, cell-based; conditions: HCSC-1, 192 h
# RL95-2 = assay: Cytotoxicity against human RL95-2 cells measured after 8 days; assay type: functional, cell-based; conditions: RL95-2, 192 h
# NB1 = assay: Cytotoxicity against human NB1 cells measured after 8 days; assay type: functional, cell-based; conditions: NB1, 192 h
# NCI-H929 = assay: Cytotoxicity against human NCI-H929 cells measured after 8 days; assay type: functional, cell-based; conditions: NCI-H929, 192 h
# [2] = Cytotoxicity against human C32TG cells measured after 8 days; assay type: functional, cell-based; conditions: 192 h
# [3] = Cytotoxicity against mouse TRAMP-C2 cells measured after 8 days; assay type: functional, cell-based; conditions: TRAMP-C2, 192 h
# SNG-M = assay: Cytotoxicity against human SNG-M cells measured after 8 days; assay type: functional, cell-based; conditions: 192 h
# [4] = Cytotoxicity against human SNU-668 cells measured after 8 days; assay type: functional, cell-based; conditions: SNU668, 192 h
# [5] = Cytotoxicity against human Ri-1 cells measured after 8 days; assay type: functional, cell-based; conditions: Ri-1, 192 h
# HEp-2 = assay: Cytotoxicity against human HEp-2 cells measured after 8 days; assay type: functional, cell-based; conditions: HEp-2, 192 h
# B16-F1 = assay: Cytotoxicity against mouse B16-F1 cells measured after 8 days; assay type: functional, cell-based; conditions: B16-F1, 192 h
# KMS-11 = assay: Cytotoxicity against human KMS-11 cells measured after 8 days; assay type: functional, cell-based; conditions: KMS-11, 192 h
# [6] = Cytotoxicity against human HEC-108 cells measured after 8 days; assay type: functional, cell-based; conditions: HEC-108, 192 h
# [7] = Cytotoxicity against human HEC-265 cells measured after 8 days; assay type: functional, cell-based; conditions: HEC-265, 192 h
# TOV112D = assay: Cytotoxicity against human TOV112D cells measured after 8 days; assay type: functional, cell-based; conditions: 192 h
# A2780 = assay: Cytotoxicity against human A2780 cells measured after 8 days; assay type: functional, cell-based; conditions: A2780, 192 h
# SU-DHL10 = assay: Cytotoxicity against human SU-DHL-10 cells measured after 8 days; assay type: functional, cell-based; conditions: SU-DHL10, 192 h
# [8] = Cytotoxicity against human KPP-1 cells measured after 8 days; assay type: functional, cell-based; conditions: KPP-1, 192 h
# COLO-829 = assay: Cytotoxicity against human COLO-829 cells measured after 8 days; assay type: functional, cell-based; conditions: COLO-829, 192 h
# [9] = Cytotoxicity against human NCE-G 140 cells measured after 8 days; assay type: functional, cell-based; conditions: NCE-G 140, 192 h
# [10] = Cytotoxicity against human KPP14449 cells measured after 8 days; assay type: functional, cell-based; conditions: KPP14449, 192 h
# [11] = Cytotoxicity against human COR-L26 cells measured after 8 days; assay type: functional, cell-based; conditions: COR-L26, 192 h
# KU812 cell line = assay: Cytotoxicity against human KU812 cell line measured after 8 days; assay type: functional, cell-based; conditions: KU812, 192 h
# OVCAR-5 = assay: Cytotoxicity against human OVCAR-5 cells measured after 8 days; assay type: functional, cell-based; conditions: OVCAR-5, 192 h
# [12] = Cytotoxicity against human UKE-1 cells measured after 8 days; assay type: functional, cell-based; conditions: UKE1, 192 h
# [13] = Cytotoxicity against human COV362 cells measured after 8 days; assay type: functional, cell-based; conditions: COV362, 192 h
# EFO-27 = assay: Cytotoxicity against human EFO-27 cells measured after 8 days; assay type: functional, cell-based; conditions: EFO-27, 192 h
# PLC-PRF-5 = assay: Cytotoxicity against human PLCPRF5 cells measured after 8 days; assay type: functional, cell-based; conditions: PLC-PRF-5, 192 h
# KG-1 = assay: Cytotoxicity against human KG-1 cells measured after 8 days; assay type: functional, cell-based; conditions: KG-1, 192 h
# KYSE-450 = assay: Cytotoxicity against human KYSE-450 cells measured after 8 days; assay type: functional, cell-based; conditions: KYSE-450, 192 h
# [14] = target: Serine/threonine-protein kinase PLK1 (Homo sapiens) (UniProt P53350); assay: Inhibition of PLK1 (unknown origin) at 1 uM relative to control
# [15] = Cytotoxicity against mouse LTPA cells measured after 8 days; assay type: functional, cell-based; conditions: 192 h
# [16] = Cytotoxicity against human NJG cells measured after 8 days; assay type: functional, cell-based; conditions: 192 h
# G-402 = assay: Cytotoxicity against human G-402 cells measured after 8 days; assay type: functional, cell-based; conditions: G-402, 192 h
# FTC-133 = assay: Cytotoxicity against human FTC-133 cells measured after 8 days; assay type: functional, cell-based; conditions: FTC-133, 192 h
# SCLC-21H = assay: Cytotoxicity against human SCLC-21H cells measured after 8 days; assay type: functional, cell-based; conditions: 192 h
# HeLa = assay: Cytotoxicity against human HeLa cells measured after 8 days; assay type: functional, cell-based; conditions: 192 h
# [17] = Cytotoxicity against human KR7110 cells measured after 8 days; assay type: functional, cell-based; conditions: KR7110, 192 h
# OCI-Ly10 = assay: Cytotoxicity against human OCI-Ly10 cells measured after 8 days; assay type: functional, cell-based; conditions: OCI-Ly10, 192 h
# NCI-H446 = assay: Cytotoxicity against human NCI-H446 cells measured after 8 days; assay type: functional, cell-based; conditions: NCI-H446, 192 h
# C2BBe1 = assay: Cytotoxicity against human C2BBe1 cells measured after 8 days; assay type: functional, cell-based; conditions: C2BBe1, 192 h
# HT55 = assay: Cytotoxicity against human HT55 cells measured after 8 days; assay type: functional, cell-based; conditions: HT55, 192 h
# [18] = Cytotoxicity against human KHM-1B cells measured after 8 days; assay type: functional, cell-based; conditions: 192 h
# [19] = Cytotoxicity against human KR7251 cells measured after 8 days; assay type: functional, cell-based; conditions: KR7251, 192 h
# KYSE-510 = assay: Cytotoxicity against human KYSE-510 cells measured after 8 days; assay type: functional, cell-based; conditions: KYSE-510, 192 h
# [20] = Cytotoxicity against human SNU-216 cells measured after 8 days; assay type: functional, cell-based; conditions: SNU-216, 192 h
# FaDu = assay: Cytotoxicity against human FaDu cells measured after 8 days; assay type: functional, cell-based; conditions: 192 h
# [21] = Cytotoxicity against human IGR-39 cells measured after 8 days; assay type: functional, cell-based; conditions: IGR-39, 192 h
# AGS = assay: Cytotoxicity against human AGS cells measured after 8 days; assay type: functional, cell-based; conditions: 192 h
# 786-0 = assay: Cytotoxicity against human 786-0 cells measured after 8 days; assay type: functional, cell-based; conditions: 786-0, 192 h
# SF-539 = assay: Cytotoxicity against human SF-539 cells measured after 8 days; assay type: functional, cell-based; conditions: SF-539, 192 h
# MDA-MB-453 = assay: Cytotoxicity against human MDA-MB-453 cells measured after 8 days; assay type: functional, cell-based; conditions: MDA-MB-453, 192 h
# TMD8 = assay: Cytotoxicity against human TMD8 cells measured after 8 days; assay type: functional, cell-based; conditions: TMD8, 192 h
# [22] = Cytotoxicity against human ASH-3 cells measured after 8 days; assay type: functional, cell-based; conditions: ASH-3, 192 h
# [23] = Cytotoxicity against human BM-1604 cells measured after 8 days; assay type: functional, cell-based; conditions: BM-1604, 192 h
# SK-MEL-2 = assay: Cytotoxicity against human SK-MEL-2 cells measured after 8 days; assay type: functional, cell-based; conditions: SK-MEL-2, 192 h
# NCI-H2052 = assay: Cytotoxicity against human NCI-H2052 cells measured after 8 days; assay type: functional, cell-based; conditions: NCI-H2052, 192 h
# [24] = Cytotoxicity against human PMF-ko14 cells measured after 8 days; assay type: functional, cell-based; conditions: PMF-ko14, 192 h
# [25] = Cytotoxicity against human 59M cells measured after 8 days; assay type: functional, cell-based; conditions: 192 h
# [26] = Cytotoxicity against human COLO 685 cells measured after 8 days; assay type: functional, cell-based; conditions: COLO 685, 192 h
# HT-3 = assay: Cytotoxicity against human HT-3 cells measured after 8 days; assay type: functional, cell-based; conditions: HT-3, 192 h
# Sequence of Serine/threonine-protein kinase PLK1 (Homo sapiens) (P53350 whole entry): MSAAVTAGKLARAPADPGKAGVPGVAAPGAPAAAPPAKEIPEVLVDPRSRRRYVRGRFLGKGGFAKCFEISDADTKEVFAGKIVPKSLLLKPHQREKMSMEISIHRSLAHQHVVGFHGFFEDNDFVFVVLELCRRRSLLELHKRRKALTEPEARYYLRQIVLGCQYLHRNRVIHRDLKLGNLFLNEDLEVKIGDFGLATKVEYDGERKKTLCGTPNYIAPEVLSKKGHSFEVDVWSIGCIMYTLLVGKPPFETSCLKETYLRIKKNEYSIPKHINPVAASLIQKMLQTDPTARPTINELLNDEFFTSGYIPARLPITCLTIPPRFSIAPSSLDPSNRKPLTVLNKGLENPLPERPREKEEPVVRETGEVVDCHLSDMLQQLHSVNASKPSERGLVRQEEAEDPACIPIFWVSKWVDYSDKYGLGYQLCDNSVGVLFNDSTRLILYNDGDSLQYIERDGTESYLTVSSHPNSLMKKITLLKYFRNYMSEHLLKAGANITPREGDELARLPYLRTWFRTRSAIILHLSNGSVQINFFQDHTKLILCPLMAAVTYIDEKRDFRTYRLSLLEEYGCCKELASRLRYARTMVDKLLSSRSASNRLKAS
smiles,measurement,setting,value
C/C=C/Cn1cc(-c2ccc(C(=O)N3CCOCC3)cc2)c2cc[nH]c2c1=O,IC50,[1],20 µM
same,IC50,RL95-2,20 µM
same,IC50,NB1,20 µM
same,IC50,NCI-H929,6.04 µM
same,IC50,[2],20 µM
same,IC50,[3],20 µM
same,IC50,SNG-M,20 µM
same,IC50,[4],20 µM
same,IC50,[5],20 µM
same,IC50,HEp-2,20 µM
same,IC50,B16-F1,13.5 µM
same,IC50,KMS-11,12.4 µM
same,IC50,[6],20 µM
same,IC50,[7],20 µM
same,IC50,TOV112D,20 µM
same,IC50,A2780,20 µM
same,IC50,SU-DHL10,20 µM
same,IC50,[8],10.9 µM
same,IC50,COLO-829,20 µM
same,IC50,[9],20 µM
same,IC50,[10],20 µM
same,IC50,[11],20 µM
same,IC50,KU812 cell line,20 µM
same,IC50,OVCAR-5,20 µM
same,IC50,[12],12.4 µM
same,IC50,[13],20 µM
same,IC50,EFO-27,20 µM
same,IC50,PLC-PRF-5,20 µM
same,IC50,KG-1,20 µM
same,IC50,KYSE-450,20 µM
same,inhibition,[14],0.9%
same,IC50,[15],20 µM
same,IC50,[16],20 µM
same,IC50,G-402,4.76 µM
same,IC50,FTC-133,20 µM
same,IC50,SCLC-21H,20 µM
same,IC50,HeLa,20 µM
same,IC50,[17],20 µM
same,IC50,OCI-Ly10,20 µM
same,IC50,NCI-H446,20 µM
same,IC50,C2BBe1,20 µM
same,IC50,HT55,20 µM
same,IC50,[18],20 µM
same,IC50,[19],20 µM
same,IC50,KYSE-510,20 µM
same,IC50,[20],20 µM
same,IC50,FaDu,20 µM
same,IC50,[21],20 µM
same,IC50,AGS,20 µM
same,IC50,786-0,20 µM
same,IC50,SF-539,20 µM
same,IC50,MDA-MB-453,20 µM
same,IC50,TMD8,20 µM
same,IC50,[22],20 µM
same,IC50,[23],20 µM
same,IC50,SK-MEL-2,20 µM
same,IC50,NCI-H2052,20 µM
same,IC50,[24],20 µM
same,IC50,[25],20 µM
same,IC50,[26],20 µM
same,IC50,HT-3,20 µM
C/C=C/Cn1cc(-c2ccc(C(C)(C)O)cc2OC)c2cc[nH]c2c1=O,IC50,[1],20 µM
same,IC50,RL95-2,20 µM
same,IC50,NB1,10.2 µM
same,IC50,NCI-H929,20 µM
same,IC50,[2],20 µM
same,IC50,[3],20 µM
same,IC50,SNG-M,20 µM
same,IC50,[4],20 µM
same,IC50,[5],20 µM
same,IC50,HEp-2,20 µM
same,IC50,B16-F1,20 µM
same,IC50,KMS-11,9.13 µM
same,IC50,[6],20 µM
same,IC50,[7],20 µM
same,IC50,TOV112D,20 µM
same,IC50,A2780,20 µM
same,IC50,SU-DHL10,10.9 µM
same,IC50,[8],20 µM
same,IC50,COLO-829,20 µM
same,IC50,[9],20 µM
same,IC50,[10],20 µM
same,IC50,[11],20 µM
same,IC50,KU812 cell line,20 µM
same,IC50,OVCAR-5,20 µM
same,IC50,[12],20 µM
same,IC50,[13],20 µM
same,IC50,EFO-27,20 µM
same,IC50,PLC-PRF-5,20 µM
same,IC50,KG-1,20 µM
same,IC50,KYSE-450,20 µM
same,inhibition,[14],1%
same,IC50,[15],20 µM
same,IC50,[16],20 µM
same,IC50,G-402,11.7 µM
same,IC50,FTC-133,20 µM
same,IC50,SCLC-21H,20 µM
same,IC50,HeLa,20 µM
same,IC50,[17],20 µM
same,IC50,OCI-Ly10,20 µM
same,IC50,NCI-H446,20 µM
same,IC50,C2BBe1,20 µM
same,IC50,HT55,20 µM
same,IC50,[18],20 µM
same,IC50,[19],20 µM
same,IC50,KYSE-510,20 µM
same,IC50,[20],20 µM
same,IC50,FaDu,20 µM
same,IC50,[21],20 µM
same,IC50,AGS,20 µM
same,IC50,786-0,20 µM
same,IC50,SF-539,20 µM
same,IC50,MDA-MB-453,20 µM
same,IC50,TMD8,20 µM
same,IC50,[22],20 µM
same,IC50,[23],20 µM
same,IC50,SK-MEL-2,20 µM
same,IC50,NCI-H2052,20 µM
same,IC50,[24],20 µM
same,IC50,[25],20 µM
same,IC50,[26],20 µM
same,IC50,HT-3,20 µM
